Laboratory results taken from the supplement of paper PMC10307832.

Key:
Experiment in all cases: relative viability (nuclei count vs DMSO), 5 days (fraction); higher = more cells survive
SK-LU-1 = system: SK-LU-1
Method in brief: (§1)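 Relative viability equals treated-well nuclei counts divided by vehicle-well nuclei counts. Counts came from 4× images of lung cancer cell lines grown in 1536-well plates for 5 days after pin-tool dosing on the day after seeding. Dosing used one drug alone or a fixed anchor-drug dose plus five library-drug doses (not always all listed) in √10 steps, and values are medians of duplicate plates.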

NCI-H1734 = system: NCI-H1734
Method in brief: as §1

HOP-62 = system: HOP-62
Method in brief: as §1

LCLC-97TM1 = system: LCLC-97TM1
Method in brief: as §1

SW 1573 = system: SW 1573
Method in brief: as §1

EPLC-272H = system: EPLC-272H
Method in brief: as §1

NCI-H2347 = system: NCI-H2347
Method in brief: as §1

NCI-H1563 = system: NCI-H1563
Method in brief: as §1

NCI-H661 = system: NCI-H661
Method in brief: as §1

NCI-H1993 = system: NCI-H1993
Method in brief: as §1

H3255 = system: H3255
Method in brief: as §1

NCI-H322M = system: NCI-H322M
Method in brief: as §1

NCI-H2009 = system: NCI-H2009
Method in brief: as §1

NCI-H647 = system: NCI-H647
Method in brief: as §1

EMC-BAC-2 = system: EMC-BAC-2
Method in brief: as §1

NCI-H727 = system: NCI-H727
Method in brief: as §1

NCI-H2085 = system: NCI-H2085
Method in brief: as §1

NCI-H2126 = system: NCI-H2126
Method in brief: as §1

NCI-H1915 = system: NCI-H1915
Method in brief: as §1

LXF-289 = system: LXF-289
Method in brief: as §1

NCI-H2023 = system: NCI-H2023
Method in brief: as §1

PC-14 = system: PC-14
Method in brief: as §1

Work on O=c1cc(N2CCOCC2)oc2c(-c3cccc4c3sc3ccccc34)cccc12 + CS(=O)(=O)N1CCN(Cc2cc3nc(-c4cccc5[nH]ncc45)nc(N4CCOCC4)c3s2)CC1 [Pictilisib] (partner 1 µM) yielded a relative viability (SK-LU-1; first compound 0.01 µM) of 0.609, a relative viability (SK-LU-1; first compound 0.03162 µM) of 0.604 and a relative viability (SK-LU-1; first compound 0.1 µM) of 0.527. It also gave a relative viability (SK-LU-1; first compound 0.3162 µM) of 0.481, a relative viability (SK-LU-1; first compound 1 µM) of 0.587 and a relative viability (NCI-H1734; first compound 0.01 µM) of 0.445. It also gave a relative viability (NCI-H1734; first compound 0.03162 µM) of 0.472, a relative viability (NCI-H1734; first compound 0.1 µM) of 0.452 and a relative viability (NCI-H1734; first compound 0.3162 µM) of 0.504. The relative viability (NCI-H1734; first compound 1 µM) was 0.446, the relative viability (HOP-62; first compound 0.01 µM) was 0.755 and the relative viability (HOP-62; first compound 0.03162 µM) was 0.696. For the same compound, the relative viability (HOP-62; first compound 0.1 µM) was 0.594, the relative viability (HOP-62; first compound 0.3162 µM) was 0.649 and the relative viability (HOP-62; first compound 1 µM) was 0.697. For the same compound, the relative viability (LCLC-97TM1; first compound 0.01 µM) was 0.177, the relative viability (LCLC-97TM1; first compound 0.03162 µM) was 0.271 and the relative viability (LCLC-97TM1; first compound 0.3162 µM) was 0.233. It also gave a relative viability (LCLC-97TM1; first compound 1 µM) of 0.145, a relative viability (SW 1573; first compound 0.01 µM) of 0.549 and a relative viability (SW 1573; first compound 0.03162 µM) of 0.489. It also gave a relative viability (SW 1573; first compound 0.1 µM) of 0.48, a relative viability (SW 1573; first compound 0.3162 µM) of 0.452 and a relative viability (SW 1573; first compound 1 µM) of 0.471. For the same compound, the relative viability (EPLC-272H; first compound 0.01 µM) was 0.108, the relative viability (EPLC-272H; first compound 0.03162 µM) was 0.242 and the relative viability (EPLC-272H; first compound 0.3162 µM) was 0.374. The relative viability (EPLC-272H; first compound 1 µM) was 0.31, the relative viability (NCI-H2347; first compound 0.01 µM) was 0.671 and the relative viability (NCI-H2347; first compound 0.03162 µM) was 0.442. For the same compound, the relative viability (NCI-H2347; first compound 0.1 µM) was 0.502, the relative viability (NCI-H2347; first compound 0.3162 µM) was 0.802 and the relative viability (NCI-H2347; first compound 1 µM) was 0.468. The relative viability (NCI-H1563; first compound 0.01 µM) was 0.626, the relative viability (NCI-H1563; first compound 0.03162 µM) was 0.634 and the relative viability (NCI-H1563; first compound 0.1 µM) was 0.659. The relative viability (NCI-H1563; first compound 0.3162 µM) was 0.57, the relative viability (NCI-H1563; first compound 1 µM) was 0.559 and the relative viability (NCI-H661; first compound 0.01 µM) was 0.362. For the same compound, the relative viability (NCI-H661; first compound 0.03162 µM) was 0.352, the relative viability (NCI-H661; first compound 0.1 µM) was 0.376 and the relative viability (NCI-H661; first compound 0.3162 µM) was 0.409. For the same compound, the relative viability (NCI-H661; first compound 1 µM) was 0.331, the relative viability (NCI-H1993; first compound 0.01 µM) was 0.937 and the relative viability (NCI-H1993; first compound 0.03162 µM) was 0.945. For the same compound, the relative viability (NCI-H1993; first compound 0.1 µM) was 0.812, the relative viability (NCI-H1993; first compound 0.3162 µM) was 0.759 and the relative viability (NCI-H1993; first compound 1 µM) was 0.799. For the same compound, the relative viability (H3255; first compound 0.01 µM) was 0.5, the relative viability (H3255; first compound 0.03162 µM) was 0.513 and the relative viability (H3255; first compound 0.1 µM) was 0.48. It also gave a relative viability (H3255; first compound 0.3162 µM) of 0.45, a relative viability (H3255; first compound 1 µM) of 0.416 and a relative viability (NCI-H322M; first compound 0.01 µM) of 0.578. For the same compound, the relative viability (NCI-H322M; first compound 0.03162 µM) was 0.525, the relative viability (NCI-H322M; first compound 0.3162 µM) was 0.471 and the relative viability (NCI-H322M; first compound 1 µM) was 0.507. The relative viability (NCI-H2009; first compound 0.01 µM) was 0.802, the relative viability (NCI-H2009; first compound 0.03162 µM) was 0.864 and the relative viability (NCI-H2009; first compound 0.1 µM) was 0.735. It also gave a relative viability (NCI-H2009; first compound 0.3162 µM) of 0.796, a relative viability (NCI-H2009; first compound 1 µM) of 0.813 and a relative viability (NCI-H647; first compound 0.01 µM) of 0.437. The relative viability (NCI-H647; first compound 0.3162 µM) was 0.578, the relative viability (NCI-H647; first compound 1 µM) was 0.439 and the relative viability (EMC-BAC-2; first compound 0.01 µM) was 0.372. The relative viability (EMC-BAC-2; first compound 0.03162 µM) was 0.518, the relative viability (EMC-BAC-2; first compound 0.1 µM) was 0.559 and the relative viability (EMC-BAC-2; first compound 0.3162 µM) was 0.574. For the same compound, the relative viability (EMC-BAC-2; first compound 1 µM) was 0.517, the relative viability (NCI-H727; first compound 0.01 µM) was 0.587 and the relative viability (NCI-H727; first compound 0.03162 µM) was 0.355. The relative viability (NCI-H727; first compound 0.1 µM) was 0.467, the relative viability (NCI-H727; first compound 0.3162 µM) was 0.39 and the relative viability (NCI-H727; first compound 1 µM) was 0.266. The relative viability (NCI-H2085; first compound 0.01 µM) was 0.469, the relative viability (NCI-H2085; first compound 0.03162 µM) was 0.467 and the relative viability (NCI-H2085; first compound 0.1 µM) was 0.553. It also gave a relative viability (NCI-H2085; first compound 0.3162 µM) of 0.464, a relative viability (NCI-H2085; first compound 1 µM) of 0.405 and a relative viability (NCI-H2126; first compound 0.01 µM) of 0.471. For the same compound, the relative viability (NCI-H2126; first compound 0.03162 µM) was 0.449, the relative viability (NCI-H2126; first compound 0.1 µM) was 0.529 and the relative viability (NCI-H2126; first compound 0.3162 µM) was 0.517. For the same compound, the relative viability (NCI-H2126; first compound 1 µM) was 0.479, the relative viability (NCI-H1915; first compound 0.01 µM) was 0.953 and the relative viability (NCI-H1915; first compound 0.03162 µM) was 0.975. For the same compound, the relative viability (NCI-H1915; first compound 0.1 µM) was 1.08, the relative viability (NCI-H1915; first compound 0.3162 µM) was 0.99 and the relative viability (NCI-H1915; first compound 1 µM) was 0.909. For the same compound, the relative viability (LXF-289; first compound 0.01 µM) was 0.877, the relative viability (LXF-289; first compound 0.03162 µM) was 0.815 and the relative viability (LXF-289; first compound 0.1 µM) was 0.881. The relative viability (LXF-289; first compound 0.3162 µM) was 0.754, the relative viability (LXF-289; first compound 1 µM) was 0.843 and the relative viability (NCI-H2023; first compound 0.01 µM) was 0.306. It also gave a relative viability (NCI-H2023; first compound 0.03162 µM) of 0.262, a relative viability (NCI-H2023; first compound 0.1 µM) of 0.266 and a relative viability (NCI-H2023; first compound 0.3162 µM) of 0.275. It also gave a relative viability (NCI-H2023; first compound 1 µM) of 0.245, a relative viability (PC-14; first compound 0.01 µM) of 0.555 and a relative viability (PC-14; first compound 0.03162 µM) of 0.612. For the same compound, the relative viability (PC-14; first compound 0.1 µM) was 0.553, the relative viability (PC-14; first compound 0.3162 µM) was 0.638 and the relative viability (PC-14; first compound 1 µM) was 0.589.
